Laboratory results as given in PubChem BioAssay (NCI).
Where “and” joins values, the source holds several entries; their conditions need not be identical. Equal entries are not always repeated.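 A five-concentration, 48-hour dose response in 96-well plates underlies each endpoint, interpolated linearly between surrounding concentrations. At the GI50, growth is halved. TGI denotes the concentration required for complete inhibition of growth.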

How the values were obtained:
Assay in all cases: inhibition of tumour cell growth, NCI panel, 48 h
SK-MEL-5 melanoma = tested on: SK-MEL-5 melanoma
HL-60(TB) leukemia = tested on: HL-60(TB) leukemia
SK-OV-3 ovarian = tested on: SK-OV-3 ovarian
PC-3 prostate = tested on: PC-3 prostate
CAKI-1 renal = tested on: CAKI-1 renal
U251 CNS = tested on: U251 CNS
HS 578T breast = tested on: HS 578T breast
MDA-MB-435 = tested on: MDA-MB-435
786-0 renal = tested on: 786-0 renal
NCI-H522 lung = tested on: NCI-H522 lung

NC(=Nc1nc(-c2ccccn2)cc2ccccc12)c1ccccn1
GI50 (SK-MEL-5 melanoma): 0.0462 µM
TGI (SK-MEL-5 melanoma): > 78.1 µM
GI50 (HL-60(TB) leukemia): 0.00104 µM
TGI (HL-60(TB) leukemia): 0.0598 µM and 0.251 µM
GI50 (SK-OV-3 ovarian): 0.263 µM
TGI (SK-OV-3 ovarian): > 19.4 µM
GI50 (PC-3 prostate): 0.0545 µM
TGI (PC-3 prostate): > 100 µM
GI50 (CAKI-1 renal): 0.0422 µM
TGI (CAKI-1 renal): > 11.9 µM
GI50 (U251 CNS): 0.111 µM
TGI (U251 CNS): 18.6 µM
GI50 (HS 578T breast): 0.316 µM
TGI (HS 578T breast): > 79.4 µM
GI50 (MDA-MB-435): 0.283 µM
TGI (MDA-MB-435): > 100 µM
GI50 (786-0 renal): 0.0177 µM
GI50 (NCI-H522 lung): 0.0458 µM

CC1=NN(C(=O)c2ccncc2)C(=O)C1N=Nc1ccc2ccccc2c1 (stereo not drawn)
TGI (SK-MEL-5 melanoma): > 100 µM
TGI (HL-60(TB) leukemia): > 20.6 µM
TGI (SK-OV-3 ovarian): > 100 µM
TGI (PC-3 prostate): > 100 µM
TGI (CAKI-1 renal): > 100 µM
TGI (U251 CNS): > 100 µM
TGI (HS 578T breast): > 100 µM
TGI (MDA-MB-435): 15.2 µM
TGI (786-0 renal): > 100 µM
TGI (NCI-H522 lung): > 100 µM

CCCN1C(=O)/C(=C/c2ccc(O)cc2)SC1=Nc1ccc(OC)cc1
GI50 (SK-MEL-5 melanoma): 11 µM
TGI (SK-MEL-5 melanoma): 26 µM
GI50 (HL-60(TB) leukemia): 17.1 µM
TGI (HL-60(TB) leukemia): 50.2 µM
GI50 (SK-OV-3 ovarian): 18.1 µM
TGI (SK-OV-3 ovarian): 41.9 µM
GI50 (PC-3 prostate): 14 µM
TGI (PC-3 prostate): 31.7 µM
GI50 (CAKI-1 renal): 12.9 µM
TGI (CAKI-1 renal): 27.8 µM
GI50 (U251 CNS): 12.5 µM
TGI (U251 CNS): 26 µM
GI50 (HS 578T breast): 4.48 µM
TGI (HS 578T breast): 23.3 µM
GI50 (MDA-MB-435): 14.9 µM
TGI (MDA-MB-435): 31.2 µM
GI50 (786-0 renal): 16 µM
TGI (786-0 renal): 34.6 µM
GI50 (NCI-H522 lung): 39.9 µM
TGI (NCI-H522 lung): > 100 µM

N#Cc1c(N)nc(N2CCSCC2)c(C#N)c1-c1ccc(O)cc1
GI50 (SK-MEL-5 melanoma): 12.7 µM
TGI (SK-MEL-5 melanoma): 28 µM
GI50 (HL-60(TB) leukemia): 17 µM
TGI (HL-60(TB) leukemia): 53.1 µM
GI50 (SK-OV-3 ovarian): 24.5 µM
TGI (SK-OV-3 ovarian): 98.9 µM
GI50 (PC-3 prostate): 19.8 µM
TGI (PC-3 prostate): > 100 µM
GI50 (CAKI-1 renal): 26.7 µM
TGI (CAKI-1 renal): > 100 µM
GI50 (U251 CNS): 15 µM
TGI (U251 CNS): 28.3 µM
GI50 (HS 578T breast): 25.1 µM
TGI (HS 578T breast): > 100 µM
GI50 (MDA-MB-435): 19 µM
TGI (MDA-MB-435): 49.6 µM
GI50 (786-0 renal): 13.5 µM
TGI (786-0 renal): 30.4 µM
GI50 (NCI-H522 lung): 22 µM
TGI (NCI-H522 lung): 52.7 µM

C/C=C(/C)C(=O)OC1C=C(CO)C(=O)C(OC(=O)C(C)(O)C(C)Cl)C1C(C)C (stereo not drawn)
GI50 (SK-MEL-5 melanoma): 1.38 µM
TGI (SK-MEL-5 melanoma): 2.75 µM
GI50 (HL-60(TB) leukemia): 0.358 µM
TGI (HL-60(TB) leukemia): 5.74 µM
GI50 (SK-OV-3 ovarian): 4.5 µM
TGI (SK-OV-3 ovarian): 14.9 µM
GI50 (PC-3 prostate): 1.45 µM
TGI (PC-3 prostate): 3.3 µM
GI50 (CAKI-1 renal): 1.61 µM
TGI (CAKI-1 renal): 2.98 µM
GI50 (U251 CNS): 1.38 µM
TGI (U251 CNS): 2.8 µM
GI50 (HS 578T breast): 4.78 µM
TGI (HS 578T breast): 24.4 µM
GI50 (MDA-MB-435): 1.35 µM
TGI (MDA-MB-435): 2.83 µM
GI50 (786-0 renal): 1.67 µM
TGI (786-0 renal): 3.12 µM
GI50 (NCI-H522 lung): 0.603 µM
TGI (NCI-H522 lung): 2.37 µM

COC(=O)C1=C(C(=O)OC)C2OC1c1cc3ccccc3cc12
TGI (SK-MEL-5 melanoma): 30.8 µM
TGI (HL-60(TB) leukemia): 2.22 µM
TGI (SK-OV-3 ovarian): 33 µM
TGI (PC-3 prostate): 32.2 µM
TGI (CAKI-1 renal): 4.26 µM
TGI (U251 CNS): 32.7 µM
TGI (HS 578T breast): 43.6 µM
TGI (MDA-MB-435): 18 µM
TGI (786-0 renal): 3.29 µM
TGI (NCI-H522 lung): 2.9 µM

Cc1cc(NNC(=O)c2ccccc2O)nc(Nc2nc3ccccc3o2)n1
GI50 (SK-MEL-5 melanoma): 1.11 µM
TGI (SK-MEL-5 melanoma): 6.72 µM
GI50 (HL-60(TB) leukemia): 1.13 µM
TGI (HL-60(TB) leukemia): 6.99 µM
GI50 (SK-OV-3 ovarian): 0.633 µM
TGI (SK-OV-3 ovarian): 2.22 µM
GI50 (PC-3 prostate): 0.912 µM
TGI (PC-3 prostate): 13.7 µM
GI50 (CAKI-1 renal): 1.73 µM
TGI (CAKI-1 renal): 14.3 µM
GI50 (U251 CNS): 0.628 µM
TGI (U251 CNS): 13.4 µM
GI50 (HS 578T breast): 3.26 µM
TGI (HS 578T breast): 37.5 µM
GI50 (MDA-MB-435): 3.02 µM
TGI (MDA-MB-435): 17.8 µM
GI50 (786-0 renal): 1.8 µM
TGI (786-0 renal): 7.98 µM
GI50 (NCI-H522 lung): 2.5 µM
TGI (NCI-H522 lung): 12.9 µM

Cc1cn2c(/C=C3/C(=O)Nc4ccc(F)cc43)c(C)nc2s1
GI50 (SK-MEL-5 melanoma): 2.31 µM
TGI (SK-MEL-5 melanoma): 9.61 µM
GI50 (HL-60(TB) leukemia): 1.98 µM
TGI (HL-60(TB) leukemia): 8.15 µM
GI50 (SK-OV-3 ovarian): 10.6 µM
TGI (SK-OV-3 ovarian): > 50 µM
GI50 (PC-3 prostate): 9.51 µM
TGI (PC-3 prostate): > 50 µM
GI50 (CAKI-1 renal): 9.21 µM
TGI (CAKI-1 renal): > 50 µM
GI50 (U251 CNS): 5.96 µM
TGI (U251 CNS): > 50 µM
GI50 (HS 578T breast): 7.98 µM
TGI (HS 578T breast): 28.2 µM
GI50 (MDA-MB-435): 1.26 µM
TGI (MDA-MB-435): 2.97 µM
GI50 (786-0 renal): 14.4 µM
TGI (786-0 renal): > 50 µM
GI50 (NCI-H522 lung): 3.22 µM
TGI (NCI-H522 lung): 18.7 µM

O=C(NNC(=S)Nc1ccccc1)c1ccccn1
GI50 (SK-MEL-5 melanoma): 2.11 µM
TGI (SK-MEL-5 melanoma): > 100 µM
GI50 (HL-60(TB) leukemia): 2.58 µM
TGI (HL-60(TB) leukemia): 7.85 µM
GI50 (SK-OV-3 ovarian): 7.33 µM
TGI (SK-OV-3 ovarian): > 100 µM
GI50 (PC-3 prostate): 2.87 µM
TGI (PC-3 prostate): > 100 µM
GI50 (CAKI-1 renal): 1.37 µM
TGI (CAKI-1 renal): > 100 µM
GI50 (U251 CNS): 1.49 µM
TGI (U251 CNS): > 100 µM
GI50 (HS 578T breast): 23.7 µM
TGI (HS 578T breast): > 100 µM
GI50 (MDA-MB-435): 4.29 µM
TGI (MDA-MB-435): > 100 µM
GI50 (786-0 renal): 2.81 µM
TGI (786-0 renal): > 100 µM
GI50 (NCI-H522 lung): 5.99 µM
TGI (NCI-H522 lung): > 100 µM

CCCCCCN(C)Cc1ccc(OCCOc2ccc(CN(C)CCCCCC)cc2)cc1
GI50 (SK-MEL-5 melanoma): 1.36 µM
TGI (SK-MEL-5 melanoma): 2.66 µM
GI50 (HL-60(TB) leukemia): 1.91 µM
TGI (HL-60(TB) leukemia): 4.51 µM
GI50 (SK-OV-3 ovarian): 1.64 µM
TGI (SK-OV-3 ovarian): 3.09 µM
GI50 (PC-3 prostate): 1.24 µM
TGI (PC-3 prostate): 2.8 µM
GI50 (CAKI-1 renal): 1.35 µM
TGI (CAKI-1 renal): 2.9 µM
GI50 (U251 CNS): 1.08 µM
TGI (U251 CNS): 2.37 µM
GI50 (HS 578T breast): 1.47 µM
TGI (HS 578T breast): 3.97 µM
GI50 (MDA-MB-435): 1.04 µM
TGI (MDA-MB-435): 2.5 µM
GI50 (786-0 renal): 1.44 µM
TGI (786-0 renal): 2.8 µM
GI50 (NCI-H522 lung): 0.944 µM
TGI (NCI-H522 lung): 2.25 µM

COc1cc2ncn(-c3cc(OCc4ccccc4C(F)(F)F)c(C(C)=O)s3)c2cc1OC
GI50 (SK-MEL-5 melanoma): > 25 µM
TGI (SK-MEL-5 melanoma): > 25 µM
GI50 (HL-60(TB) leukemia): > 25 µM
TGI (HL-60(TB) leukemia): > 25 µM
GI50 (SK-OV-3 ovarian): > 25 µM
TGI (SK-OV-3 ovarian): > 25 µM
GI50 (PC-3 prostate): > 25 µM
TGI (PC-3 prostate): > 25 µM
GI50 (CAKI-1 renal): > 25 µM
TGI (CAKI-1 renal): > 25 µM
GI50 (U251 CNS): > 25 µM
TGI (U251 CNS): > 25 µM
GI50 (HS 578T breast): 19.3 µM
TGI (HS 578T breast): > 25 µM
GI50 (MDA-MB-435): 17.6 µM
TGI (MDA-MB-435): > 25 µM
GI50 (786-0 renal): > 25 µM
TGI (786-0 renal): > 25 µM
GI50 (NCI-H522 lung): > 25 µM
TGI (NCI-H522 lung): > 25 µM

CC(O)CN1c2ccccc2Sc2ccc(Cl)cc21 (stereo not drawn)
TGI (SK-MEL-5 melanoma): > 10 µM
TGI (HL-60(TB) leukemia): > 10 µM
TGI (SK-OV-3 ovarian): > 10 µM
TGI (PC-3 prostate): > 10 µM
TGI (CAKI-1 renal): > 10 µM
TGI (U251 CNS): > 10 µM
TGI (HS 578T breast): > 10 µM
TGI (MDA-MB-435): > 10 µM
TGI (786-0 renal): > 10 µM
TGI (NCI-H522 lung): > 10 µM
